Measurements from US20250304623A1, “PEPTIDES FOR INTRACELLULAR DELIVERY” (UNIVERSIDADE DE SANTIAGO DE COMPOSTELA, priority 2022, published 2025).

Experiments:
Format in all cases: cell-based
[1] = tested on: HepG2 cells expressing EGFP; assay: Cas9-RNP delivery against EGFP (gene editing, plate reader), HepG2
Procedure: (§1) To generate an EGFP expressing HeLa cell line, HeLa cells were transfected with EGFP pDNA (pEGFP-C1, Clontech) and stable transfectants were selected with 400 μg/mL of G-418 (Millipore). Green clones were selected by epifluorescence microscopy and tested for EGFP expression stability through several passages. […] All other EGFP-expressing cell lines were obtained in a similar way from parent non-EGFP-expressing cell lines.
(§2) Cells expressing EGFP were seeded in a 96 well plate the day before the experiment at a concentration of 50,000 cell/mL (100 μL/w) in DMEM+10% FBS+1% Gln-Abt. For robotic library screening, the delivery of Cas9-RNP against EGFP (RNP designed to knock-out the gene encoding for the enhanced green fluorescent protein (EGFP)) was performed. For RNP assembly, 9.2 μL of crRNA and 9.2 μL of tracrRNA were mixed in 211.6 μL of Nuclease-Free Duplex Buffer (IDT), incubated for 5 min at 95° C. and slowly cooled at rt (see I. Lostalé-Seijo, et al. Peptide/Cas9 nanostructures for ribonucleoprotein cell membrane transport and gene edition, Chem. Sci., 2017). Cas9 protein was dissolved in DMEM at a final concentration of 4 μM and equal volumes of the RNA complex and Cas9 were mixed and incubated for 5 min at rt. 75 μL of the corresponding amphiphile concentrations were added to 5 μL of RNP at 2 μM. The mixture was shaken for 30 min at room temperature before the addition to the cells. The cell medium was aspirated, and cells were washed twice with PBS. Cells were covered with 30 μL of DMEM and 20 μL of the RNP/amphiphile complexes were added to the cells (final peptide concentrations=2.5, 5 and 10 μM; final Cas9-RNP concentration=50 nM) and incubated for 4 h. After the incubation, the medium was replaced by 100 μL of fresh DMEM supplemented with 10% FBS. The total EGFP fluorescence was quantified after 72 h in a plate reader (FIG. 2, Table 1 (right) and Table 6). All experiments were done in triplicate. […]
(§3) Tables 26-31 show the mean (triplicates) percentage of gene editing, accounted by GFP fluorescence intensity decrease (% of reduction), measured after the transfection of Cas9-RNP by different amphiphiles at different concentrations in a variety of cell lines. Background values, accounted by untreated control cells, were subtracted for processing.

[2] = tested on: A549 cells expressing EGFP; assay: EGFP-targeting siRNA delivery (GFP silencing vs siMOCK), A549; conditions: for percentage of GFP-silencing relative to siMOCK: A549 cells
Procedure: as §1
(§4) Cells expressing EGFP were seeded in a 96 well plate the day before the experiment at a concentration of 50,000 cell/mL (100 μL/w) in DMEM+10% FBS+1% Gln-Abt. For robotic library screening, the delivery of an EGFP-targeting siRNA (EGFP: enhanced green fluorescent protein, Ambion® Silencer® GFP Positive Control siRNA (siGFP) (AM4626)) in six different cell lines expressing EGFP was performed. […] The mixture was shaken for 30 min at room temperature (rt) before the addition to the cells. The cell medium was aspirated, and cells were washed twice with PBS. Finally, 50 μL of the solution of siRNA/amphiphile complexes were added to the cells and incubated for 4 h. After transfection, the medium was replaced by 100 μL of fresh DMEM supplemented with 10% FBS. The fluorescence knockdown was quantified after 72 h in a plate reader, by comparison with cells transfected with a non-targeting siRNA control (siMOCK, Silencer™ Negative Control No. 1 siRNA (siMOCK) (AM4611)). EGFP knockdown was compared with Lipofectamine® RNAiMAX silencing efficiency (30-60% depending on cell line, defined with a numeric value in the below tables). All experiments were done in triplicate.
(§5) Tables 1-7: RLuc (pDNA) or EGFP (mRNA) expression levels were normalized to Lipofectamine reagents (value=1) and expressed as fold-times signal increase. In the case of siRNA, the siRNA treated cells fluorescence was compared with siMOCK control fluorescence, while Cas9-RNP mediated knockout was measured against the fluorescence of untreated cells. In both siRNA and Cas9-RNP, values are expressed as % fluorescence reduction. Amphiphile concentration was 5 μM in all cases. All experiments were performed in triplicate.
(§6) Tables 20-25 show the mean (triplicates) percentage of GFP-silencing, accounted by fluorescence intensity decrease relative to a non-targeting siRNA (siMOCK) control, measured after the transfection of siRNA by different amphiphiles at different concentrations in a variety of cell lines. Background values, accounted by untreated control cells, were subtracted for processing.

[3] = tested on: ARPE19 cells expressing EGFP; assay: Cas9-RNP delivery against EGFP (gene editing, plate reader), ARPE19; conditions: Petroselinyl, 15 μM
Procedure: as §1, §2, §3

[4] = tested on: HepG2 cells expressing EGFP; assay: EGFP-targeting siRNA delivery (GFP silencing vs siMOCK), HepG2
Procedure: as §1, §4, §5, §6

[5] = tested on: ARPE19 cells; assay: RLuc pDNA delivery, robotic library screening, ARPE19
[6] = tested on: ARPE19 cells expressing EGFP; assay: EGFP-targeting siRNA delivery (GFP silencing vs siMOCK), ARPE19
Procedure: as §1, §4, §5, §6

[7] = tested on: HCT116 cells; assay: RLuc pDNA delivery, robotic library screening, HCT116

Ac-RHLK*RHK*RRLK*RH-NH2 (Ac-RHLKRHKRRLKRH-NH2; not fully specified (residues 4, 7, 11); printed as Ac-RHLK*RHK*RRLK*RH-NH2; also: linker on K* not given here) [13(3His)]
percentage of gene editing, GFP fluorescence intensity decrease (% of reduction) ([1]; Dodecanal, 5 μM): −33% | percentage of gene editing, GFP fluorescence intensity decrease (% of reduction) ([1]; Dodecanal, 10 μM): −34% | percentage of gene editing, GFP fluorescence intensity decrease (% of reduction) ([1]; Myristoleyl, 10 μM): −1% | percentage of gene editing, GFP fluorescence intensity decrease (% of reduction) ([1]; Palmitoleyl, 5 μM): −28% | percentage of gene editing, GFP fluorescence intensity decrease (% of reduction) ([1]; Palmitoleyl, 10 μM): −24% | percentage of gene editing, GFP fluorescence intensity decrease (% of reduction) ([1]; Palmitoleyl, 15 μM): −15% | percentage of gene editing, GFP fluorescence intensity decrease (% of reduction) ([1]; Petroselinyl, 5 μM): −16% | siRNA % fluorescence reduction vs siMOCK ([2]; A549, amphiphile 5 μM, hydrophobic tail): 71% | percentage of GFP-silencing relative to siMOCK ([2]; Dodecanal, 10 μM): 10% | percentage of GFP-silencing relative to siMOCK ([2]; Dodecanal, 15 μM): 37% | percentage of GFP-silencing relative to siMOCK ([2]; Myristoleyl, 10 μM): 28% | percentage of GFP-silencing relative to siMOCK ([2]; Myristoleyl, 15 μM): 25% | percentage of GFP-silencing relative to siMOCK ([2]; Oleyl, 5 μM): 22% | percentage of GFP-silencing relative to siMOCK ([2]; Oleyl, 10 μM): 26% | percentage of GFP-silencing relative to siMOCK ([2]; Oleyl, 15 μM): 29% | percentage of GFP-silencing relative to siMOCK ([2]; Palmitoleyl, 10 μM): 36% | percentage of GFP-silencing relative to siMOCK ([2]; Palmitoleyl, 15 μM): 28% | percentage of GFP-silencing relative to siMOCK ([2]; Petroselinyl, 10 μM): 42% | percentage of GFP-silencing relative to siMOCK ([2]; Petroselinyl, 15 μM): 71% | percentage of gene editing, GFP fluorescence intensity decrease (% of reduction) [3]: 34% | percentage of GFP-silencing relative to siMOCK ([4]; Myristoleyl, 10 μM): 8% | percentage of GFP-silencing relative to siMOCK ([4]; Palmitoleyl, 10 μM): 6% | percentage of GFP-silencing relative to siMOCK ([4]; Petroselinyl, 5 μM): −1% | percentage of GFP-silencing relative to siMOCK ([4]; Petroselinyl, 10 μM): 19% | mean luminescent intensity (RLuc pDNA) ([5]; Dodecanal, 5 μM): 11495 RLU | mean luminescent intensity (RLuc pDNA) ([5]; Dodecanal, 10 μM): 366 RLU | mean luminescent intensity (RLuc pDNA) ([5]; Myristoleyl, 5 μM): 32411 RLU | mean luminescent intensity (RLuc pDNA) ([5]; Myristoleyl, 10 μM): 1998 RLU | mean luminescent intensity (RLuc pDNA) ([5]; Myristoleyl, 15 μM): 28 RLU | mean luminescent intensity (RLuc pDNA) ([5]; Oleyl, 5 μM): 6754 RLU | mean luminescent intensity (RLuc pDNA) ([5]; Palmitoleyl, 5 μM): 40629 RLU | mean luminescent intensity (RLuc pDNA) ([5]; Palmitoleyl, 10 μM): 6400 RLU | mean luminescent intensity (RLuc pDNA) ([5]; Petroselinyl, 5 μM): 33797 RLU | mean luminescent intensity (RLuc pDNA) ([5]; Petroselinyl, 10 μM): 10940 RLU | mean luminescent intensity (RLuc pDNA) ([5]; Petroselinyl, 15 μM): 3792 RLU | percentage of GFP-silencing relative to siMOCK ([6]; Dodecanal, 5 μM): 16% | percentage of GFP-silencing relative to siMOCK ([6]; Dodecanal, 15 μM): 22% | percentage of GFP-silencing relative to siMOCK ([6]; Myristoleyl, 10 μM): 42% | percentage of GFP-silencing relative to siMOCK ([6]; Myristoleyl, 15 μM): 30% | percentage of GFP-silencing relative to siMOCK ([6]; Oleyl, 10 μM): 43% | percentage of GFP-silencing relative to siMOCK ([6]; Oleyl, 15 μM): 41% | percentage of GFP-silencing relative to siMOCK ([6]; Palmitoleyl, 10 μM): 49% | percentage of GFP-silencing relative to siMOCK ([6]; Palmitoleyl, 15 μM): 25% | percentage of GFP-silencing relative to siMOCK ([6]; Petroselinyl, 5 μM): 13% | percentage of GFP-silencing relative to siMOCK ([6]; Petroselinyl, 10 μM): 56% | percentage of GFP-silencing relative to siMOCK ([6]; Petroselinyl, 15 μM): 30% | mean luminescent intensity (RLuc pDNA) ([7]; Dodecanal, 5 μM): 22167 RLU | mean luminescent intensity (RLuc pDNA) ([7]; Dodecanal, 10 μM): 7176 RLU | mean luminescent intensity (RLuc pDNA) ([7]; Myristoleyl, 5 μM): 94125 RLU | mean luminescent intensity (RLuc pDNA) ([7]; Myristoleyl, 15 μM): 738 RLU | mean luminescent intensity (RLuc pDNA) ([7]; Palmitoleyl, 5 μM): 109244 RLU | mean luminescent intensity (RLuc pDNA) ([7]; Petroselinyl, 5 μM): 19145 RLU | mean luminescent intensity (RLuc pDNA) ([7]; Petroselinyl, 10 μM): 45000 RLU | mean luminescent intensity (RLuc pDNA) ([7]; Petroselinyl, 15 μM): 8961 RLU
